We go through ten compounds from publication PMC9861092, “Napyradiomycin A4 and Its Relate Compounds, a New Anti-PRV Agent and Their Antibacterial Activities, from Streptomyces kebangsaanensis WS-68302” (Molecules, 2023).

The test system of data set [1] is PRV (Pseudorabies virus).
For data set [2], the system named is Staphylococcus aureus ATCC 25923. The experiment in a line: microbe, parasite or virus in culture. The class given is cell-based. As to conditions: for MIC: Staphylococcus aureus, ATCC25923, read-out: MIC S. aureus.
A short description of the next data set: in vitro. The settings on record: African green monkey.
Another data set has as its system Streptococcus suis SC19. As to the kind of experiment: microbe, parasite or virus in culture. The class given is cell-based. The settings on record: for MIC: Streptococcus suis, SC19, read-out: MIC S. suis.
In data set [3] the test system is Erysipelothrix rhusiopathiae WH13013. The experiment in a line: microbe, parasite or virus in culture. The class given is cell-based. As to conditions: for MIC: Erysipelothrix rhusiopathiae, WH13013, read-out: MIC E. rhusiopathiae.
The test system of data set [4] is PRV (Pseudorabies virus). As to the kind of experiment: microbe, parasite or virus in culture. The settings on record: Suid alphaherpesvirus 1, MARC145, 72 h, read-out: IC50 against PRV.
The test system of data set [5] is Escherichia coli ATCC 25922. Type of data set: cell-based.
The test system of a further data set is PRV protein. Type of data set: cell-based, Pseudorabies virus.
Data set [6] has as its system Bacillus subtilis ATCC6633. As to conditions: cited from earlier work.

≈ marks a conversion by molar mass, not a printed value. Entries after “also recorded” stand apart in the source; their conditions may differ. Where a name gives a salt, the structure may show the parent alone.

In general, IC50 refers to the point on the concentration scale where inhibition reaches its midpoint. For `CC(C)=CCC/C(C)=C/C[C@]1(O)C(=O)c2cc(O)cc(O)c2C(=O)[C@@]1(Cl)CC=C(C)C` [Compound 7, naphthomevalin], the “IC50 against PRV” value with PRV (Pseudorabies virus) [1] is on record as “did not display any apparent anti-PRV activity”. In data set [2], the “MIC S. aureus” value is given as “potent activities”. Besides, the MIC in data set [2] was less than 0.625 mg/L; in the data set on Streptococcus suis SC19, 20 mg/L (≈ 44.7 µM); in data set [3], 40 mg/L (≈ 89.5 µM). Besides, the CC50 in the data set “in vitro” was more than 0.045 µM. Moreover, the IC50 in the data set on PRV (Pseudorabies virus) [4] was more than 90 µM.

For the compound `CO/N=C(\C(=O)N[C@@H]1C(=O)N2C(C(=O)[O-])=C(C[n+]3cccc4c3CCC4)CS[C@H]12)c1csc(N)n1.O=S(=O)(O)O` [Cefpirome Sulfate, cefpirome sulfate, reference compound], the “MIC S. aureus” value in data set [2] was less than 0.78 mg/L. Moreover, the “MIC S. suis” value with Streptococcus suis SC19 is less than 0.78 mg/L. Further, the “MIC E. coli” value in data set [5] is 25 mg/L. Moreover, in data set [3], the “MIC E. rhusiopathiae” value is less than 0.78 mg/L.

For the compound `CC(C)=CCC/C(C)=C/C[C@@]12O[C@]1(CC=C(C)C)C(=O)c1c(O)cc(O)cc1C2=O` [Compound 5, A80915G], the “TI (therapeutic index = CC50/IC50)” value in the data set on PRV (Pseudorabies virus) [1] is 2.05. Also, in the data set “in vitro”, the CC50 was found to be 16.7 ± 1.12 µM. In the data set on Streptococcus suis SC19, the MIC came out at 25 mg/L (≈ 60.9 µM). In [3], the “MIC E. rhusiopathiae” value is 25 mg/L (≈ 60.9 µM) and the MIC is 25 to 50 mg/L (≈ 60.9 to 122 µM). Further, in the data set on PRV (Pseudorabies virus) [4], the IC50 came to 8.26 ± 0.902 µM.

In the case of `CC(C)=CCC/C(C)=C/C[C@@]12OC(C)(C)[C@H](Cl)C[C@]1(Cl)C(=O)c1c(O)cc(O)cc1C2=O` [Compound 3, napyradiomycin A1], the “TI (therapeutic index = CC50/IC50)” value in the data set on PRV (Pseudorabies virus) [1] is 2.62. Moreover, in data set [2], the “MIC S. aureus” value was “potent activities” and the MIC was less than 0.78 mg/L. Besides, in “in vitro”, the CC50 was determined as 5.79 ± 0.708 µM. Further, the “Suppression of PRV protein (green fluorescence intensity) in indirect immunofluorescence assay” value (from here on “Suppression of PRV protein”) in the data set with PRV protein is “significantly suppressed”. In addition, the MIC in the data set on Streptococcus suis SC19 came out at 3.12 mg/L (≈ 6.49 µM). In addition, in data set [3], the “MIC E. rhusiopathiae” value stood at 50 mg/L (≈ 104 µM) and the MIC is 25 to 50 mg/L (≈ 51.9 to 104 µM). For the same compound, the IC50 in the data set on PRV (Pseudorabies virus) [4] worked out at 2.21 ± 0.375 µM.

In the case of `CC(C)=CCC12OC1(CC=C(C)C(O)CC=C(C)CO)C(=O)c1cc(O)cc(O)c1C2=O` (stereo not shown) [Compound 2, A80915H], the “IC50 against PRV” value with PRV (Pseudorabies virus) [1] was “did not display any apparent anti-PRV activity”. In data set [2], the “MIC S. aureus” value is “did not show any activity and -”. The compound also displayed a CC50 in “in vitro” of more than 90 µM. The “MIC S. suis” value in the data set on Streptococcus suis SC19 is “did not show any activity and -”. Moreover, the “MIC E. rhusiopathiae” value in [3] is “did not show any activity and -”. Further, the concentration for half-maximal inhibition (IC50) with PRV (Pseudorabies virus) [4] was more than 90 µM.

As for `CC(=CCC12OC(C)(C)C(Cl)CC1(Cl)C(=O)c1c(O)cc(O)cc1C2=O)CCC(=O)C(C)C` (stereo not shown) [Compound 1, napyradiomycin A4], in the data set with PRV (Pseudorabies virus) [1], the “TI (therapeutic index = CC50/IC50)” value is reported as 14.98. Besides, the MIC in data set [2] was 25 mg/L (≈ 50.3 µM). In “in vitro”, this compound registered a CC50 of 30.8 ± 5.57 µM. Further, in the data set with PRV protein, the “Suppression of PRV protein” value was “strongest inhibition; also recorded: significantly suppressed”. Further, in the data set with Streptococcus suis SC19, the “MIC S. suis” value is reported as “weak activity” and the MIC was found to be 100 mg/L (≈ 201 µM). In data set [3], the “MIC E. rhusiopathiae” value worked out at 50 mg/L (≈ 101 µM) and the MIC was 25 to 50 mg/L (≈ 50.3 to 101 µM). In addition, the IC50 in the data set with PRV (Pseudorabies virus) [4] was 2.06 ± 0.343 µM.

As to `C=C1CC[C@H](Cl)C(C)(C)C1C[C@@]12OC(C)(C)[C@H](Cl)C[C@]1(Cl)C(=O)c1c(O)cc(O)cc1C2=O` (stereo partly shown) [Compound 4, napyradiomycin B1], in data set [2], the “MIC S. aureus” value was “potent activities” and the MIC is less than 0.78 mg/L. In “in vitro”, this compound displayed a CC50 of 19.6 ± 2.82 µM. Moreover, the “Suppression of PRV protein” value with PRV protein is reported as “significantly suppressed”. Besides, in the data set on Streptococcus suis SC19, the MIC stood at 6.25 mg/L (≈ 12.1 µM). Also, in data set [3], the “MIC E. rhusiopathiae” value was 50 mg/L (≈ 96.9 µM) and the MIC was 25 to 50 mg/L (≈ 48.5 to 96.9 µM). For the same compound, the IC50 in the data set with PRV (Pseudorabies virus) [4] was 13.3 ± 1.11 µM.

As to `CC(C)=CC[C@]12O[C@@]1(C/C=C(\C)CC/C=C(\C)C(=O)O)C(=O)c1cc(O)cc(O)c1C2=O` [Compound 6, A80915G-8″-acid], the figures for the MIC (in data set [2]; with Streptococcus suis SC19; in data set [3]) were 50 mg/L (≈ 114 µM), 50 mg/L (≈ 114 µM) and 25 to 50 mg/L (≈ 56.8 to 114 µM), respectively. The compound further had a CC50 in “in vitro” of 46.3 ± 7.36 µM. In addition, the “MIC E. rhusiopathiae” value in data set [3] turned out to be 25 mg/L (≈ 56.8 µM). In addition, the “MIC against Bacillus subtilis ATCC6633” value in data set [6] was 64 mg/L (≈ 145 µM). Moreover, in the data set on PRV (Pseudorabies virus) [4], the IC50 worked out at 26.5 ± 5 µM.

Consider `CC1(C)S[C@@H]2[C@H](NC(=O)Cc3ccccc3)C(=O)N2[C@H]1C(=O)O` [Penicillin G, Penicillin G sodium salt, reference compound], for which the MIC in the data set with Streptococcus suis SC19 was determined as 12.5 mg/L; in [3] it was 50 mg/L.

With `NC(=O)c1ncn([C@@H]2O[C@H](CO)[C@@H](O)[C@H]2O)n1` [Ribavirin, reference compound], the “TI (therapeutic index = CC50/IC50)” value in the data set with PRV (Pseudorabies virus) [1] is given as more than 2.82. In addition, the CC50 in “in vitro” was more than 164 µM. The IC50 with PRV (Pseudorabies virus) [4] amounted to 58 µM.
